The record followed here is patent publication US9119858B2, “Compositions and methods for treating or preventing anthracycline induced cardiotoxicity” (Genesys Research Institute, priority 2012, dated 2015).

Where two headings read alike, the source gives them in different places.

The test system of data set [1] is doxorubicin injured mice. To be noted: ten weeks after initiation of doxorubicin treatment. As for the experimental part: (§1) After the completion of doxorubicin treatment, mice were subsequently treated with either Lapatinib alone (100 mg/kg, oral gavage, daily) or Rapamycin alone (6 mg/kg, i.p., daily). Survival was monitored. Cardiac function was assessed by hemodynamic measurements.

The test system of data set [2] is doxorubicin treated mice.
Data set [3] concerns doxorubicin injured mice. The experiment in a line: Cardiac output by hemodynamic measurements in doxorubicin injured mice treated with Lapatinib or Rapamycin. In kind it is in vivo. The method, then:
as §1

Data set [4] deals with doxorubicin treated mice. The experiment in a line: Echocardiography of doxorubicin and doxorubicin+lapatinib treated mice. Conditions: FIG. 3.
Method: (§2) Female FVB/n mice between 10 and 12 weeks old were treated with doxorubicin (2 mg/kg) by intraperitoneal injection (i.p.) twice a week for 7 weeks. […] After completion of the doxorubicin treatment cycle, the mice were subsequently treated with various doses of lapatinib (25, 50, and 100 mg/kg, given by oral gavage, daily) or with vehicle control.
(§3) Cardiac function of the doxorubicin and doxorubicin+lapatinib treated mice was evaluated by echocardiography.
Data set [5] concerns doxorubicin treated mice. Description: Hemodynamic measurements (dP/dtmax, dP/dtmin) in doxorubicin and doxorubicin+lapatinib treated mice. Conditions: FIG. 4.
Method: as §2, §3
In data set [6] the test system is doxorubicin+BEZ235 treated mice. The experiment in a line: Echocardiography and heart/lung weight ratios in mice co-treated with doxorubicin, BEZ235 and lapatinib. Conditions: lapatinib co-treatment of doxorubicin+BEZ235 treated mice; FIG. 6.
Method: FVB/n female mice were treated with doxorubicin (2 mg/kg, i.p.) twice a week, PI3 kinase-mTOR inhibitor BEZ235 (35-50 mg/kg, oral, daily) and lapatinib (25, 50 or 100 mg/kg, oral, daily). Cardiac function was monitored by echocardiography.
[7] abbreviates: nine weeks after initiation of doxorubicin treatment, doxorubicin treated versus control mice.
Setting [8] is: doxorubicin treated vs. control mice.
The mark [9] stands for this setting: three weeks after initiation of lapatinib treatment, doxorubicin+lapatinib vs doxorubicin treated mice.
Where [10] appears, read: doxorubicin+lapatinib treated vs control mice.

`CO[C@H]1C[C@@H]2CC[C@@H](C)[C@@](O)(O2)C(=O)C(=O)N2CCCC[C@H]2C(=O)O[C@H]([C@H](C)C[C@@H]2CC[C@@H](O)[C@H](OC)C2)CC(=O)[C@H](C)/C=C(\C)[C@@H](O)[C@@H](OC)C(=O)[C@H](C)C[C@H](C)/C=C/C=C/C=C/1C` [Rapamycin] displayed a survival in the data set on doxorubicin injured mice [1] (Rapamycin 6 mg/kg i.p. daily after doxorubicin) of 63%.

`COc1cccc2c1C(=O)c1c(O)c3c(c(O)c1C2=O)C[C@@](O)(C(=O)CO)C[C@@H]3O[C@H]1C[C@H](N)[C@H](O)[C@H](C)O1` [doxorubicin]: the survival with doxorubicin treated mice [2] (64 days after initiation of doxorubicin treatment, doxorubicin 2 mg/kg i.p. twice a week for 7 weeks, then vehicle control, female FVB/n mice) is on record as 68%; in the data set with doxorubicin treated mice [2] (70 days after initiation of doxorubicin treatment, doxorubicin 2 mg/kg i.p. twice a week for 7 weeks, then vehicle control) it was 34%; with doxorubicin injured mice [1] (Solvent treated doxorubicin injured mice (doxorubicin 2 mg/kg i.p. twice a week for 7 weeks)), 43%. The cardiac output entry in the data set on doxorubicin injured mice [3] (Solvent treated doxorubicin injured mice vs. non-treated control mice, ten weeks) is “significantly decreased”. The EF % entry with doxorubicin treated mice [4] (setting [7]) is “decreased”. The ESV entry with doxorubicin treated mice [4] (setting [7]) is on record as “significantly increased”. Also, the dP/dtmax entry with doxorubicin treated mice [5] (setting [8]) is on record as “significantly decreased”. The dP/dtmin result in the data set on doxorubicin treated mice [5] (setting [8]) is on record as “significantly decreased”.

For the compound `CS(=O)(=O)CCNCc1ccc(-c2ccc3ncnc(Nc4ccc(OCc5cccc(F)c5)c(Cl)c4)c3c2)o1` [lapatinib, N-[3-chloro-4-[(3-fluorophenyl)methoxy]phenyl]-6-[5-[(2-methylsulfonylethylamino)methyl]-2-furyl]quinazolin-4-amine], in the data set on doxorubicin treated mice [2] (64 days after initiation of doxorubicin treatment, lapatinib 25 mg/kg oral gavage daily after the doxorubicin cycle), the survival came to 100%. The survival with doxorubicin treated mice [2] (64 days after initiation of doxorubicin treatment, lapatinib 50 mg/kg oral gavage daily after the doxorubicin cycle) is reported as 83%. The same compound showed a survival in the data set with doxorubicin treated mice [2] (64 days after initiation of doxorubicin treatment, lapatinib 100 mg/kg oral gavage daily after the doxorubicin cycle) of 71%. The survival in the data set with doxorubicin treated mice [2] (70 days after initiation of doxorubicin treatment, lapatinib 100 mg/kg oral gavage daily after the doxorubicin cycle) came out at 55%. Further, the “survival of doxorubicin treated mice (FIG. 1)” value in the data set on doxorubicin treated mice [2] (lapatinib 25, 50 and 100 mg/kg oral gavage daily vs vehicle control) is on record as “improved survival”. This compound displayed a survival in the data set with doxorubicin injured mice [1] (Lapatinib 100 mg/kg oral gavage daily after doxorubicin) of 71%. Also, in the data set on doxorubicin injured mice [3] (Lapatinib (100 mg/kg oral daily) treated doxorubicin injured mice vs. non-treated control mice), the cardiac output result is “No difference”. Moreover, in the data set with doxorubicin treated mice [4] (setting [9]), the EF % entry was “reversed these effects” and the ESV result was “reversed these effects”. In the data set with doxorubicin treated mice [5] (setting [10]), the dP/dtmax result is reported as “not different” and the dP/dtmin entry was “not different”. Further, in data set [6], the EF % entry was “reversed these effects”, the “end-diastolic volume (EDV)” value is given as “reversed these effects”, the “end-systolic volume (ESV)” value was “reversed these effects” and the “heart weight to body weight ratio (HW/BW)” value was “reversed these effects”. In addition, in data set [6], the “lung to body weight ratio” value is “reversed these effects” and the “relative wall thickness (RWth)” value is “reversed these effects”.
